“Also recorded” adds a separate entry of the source.
How the values were obtained:
[1] = biological target: T1, P300 (Homo sapiens, UniProt Q09472); experiment: P300 protein level by immunoblotting in LNCaP cells; type: cell-based; design: LNCaP or 22RV1 cells that express CBP/P300 proteins were treated with GNE-781 or the bivalent compounds; endogenous in cells; host or cells: LNCaP or 22RV1 (not given); settings: for degradation of P300 in combination with pomalidomide, MG-132, Bortezomib or MLN4924: single dose, FIG. 8; for P300 protein levels: various concentrations, compound vs analogue that lost cereblon binding, FIG. 7A
T1 sequence (Q09472 whole entry): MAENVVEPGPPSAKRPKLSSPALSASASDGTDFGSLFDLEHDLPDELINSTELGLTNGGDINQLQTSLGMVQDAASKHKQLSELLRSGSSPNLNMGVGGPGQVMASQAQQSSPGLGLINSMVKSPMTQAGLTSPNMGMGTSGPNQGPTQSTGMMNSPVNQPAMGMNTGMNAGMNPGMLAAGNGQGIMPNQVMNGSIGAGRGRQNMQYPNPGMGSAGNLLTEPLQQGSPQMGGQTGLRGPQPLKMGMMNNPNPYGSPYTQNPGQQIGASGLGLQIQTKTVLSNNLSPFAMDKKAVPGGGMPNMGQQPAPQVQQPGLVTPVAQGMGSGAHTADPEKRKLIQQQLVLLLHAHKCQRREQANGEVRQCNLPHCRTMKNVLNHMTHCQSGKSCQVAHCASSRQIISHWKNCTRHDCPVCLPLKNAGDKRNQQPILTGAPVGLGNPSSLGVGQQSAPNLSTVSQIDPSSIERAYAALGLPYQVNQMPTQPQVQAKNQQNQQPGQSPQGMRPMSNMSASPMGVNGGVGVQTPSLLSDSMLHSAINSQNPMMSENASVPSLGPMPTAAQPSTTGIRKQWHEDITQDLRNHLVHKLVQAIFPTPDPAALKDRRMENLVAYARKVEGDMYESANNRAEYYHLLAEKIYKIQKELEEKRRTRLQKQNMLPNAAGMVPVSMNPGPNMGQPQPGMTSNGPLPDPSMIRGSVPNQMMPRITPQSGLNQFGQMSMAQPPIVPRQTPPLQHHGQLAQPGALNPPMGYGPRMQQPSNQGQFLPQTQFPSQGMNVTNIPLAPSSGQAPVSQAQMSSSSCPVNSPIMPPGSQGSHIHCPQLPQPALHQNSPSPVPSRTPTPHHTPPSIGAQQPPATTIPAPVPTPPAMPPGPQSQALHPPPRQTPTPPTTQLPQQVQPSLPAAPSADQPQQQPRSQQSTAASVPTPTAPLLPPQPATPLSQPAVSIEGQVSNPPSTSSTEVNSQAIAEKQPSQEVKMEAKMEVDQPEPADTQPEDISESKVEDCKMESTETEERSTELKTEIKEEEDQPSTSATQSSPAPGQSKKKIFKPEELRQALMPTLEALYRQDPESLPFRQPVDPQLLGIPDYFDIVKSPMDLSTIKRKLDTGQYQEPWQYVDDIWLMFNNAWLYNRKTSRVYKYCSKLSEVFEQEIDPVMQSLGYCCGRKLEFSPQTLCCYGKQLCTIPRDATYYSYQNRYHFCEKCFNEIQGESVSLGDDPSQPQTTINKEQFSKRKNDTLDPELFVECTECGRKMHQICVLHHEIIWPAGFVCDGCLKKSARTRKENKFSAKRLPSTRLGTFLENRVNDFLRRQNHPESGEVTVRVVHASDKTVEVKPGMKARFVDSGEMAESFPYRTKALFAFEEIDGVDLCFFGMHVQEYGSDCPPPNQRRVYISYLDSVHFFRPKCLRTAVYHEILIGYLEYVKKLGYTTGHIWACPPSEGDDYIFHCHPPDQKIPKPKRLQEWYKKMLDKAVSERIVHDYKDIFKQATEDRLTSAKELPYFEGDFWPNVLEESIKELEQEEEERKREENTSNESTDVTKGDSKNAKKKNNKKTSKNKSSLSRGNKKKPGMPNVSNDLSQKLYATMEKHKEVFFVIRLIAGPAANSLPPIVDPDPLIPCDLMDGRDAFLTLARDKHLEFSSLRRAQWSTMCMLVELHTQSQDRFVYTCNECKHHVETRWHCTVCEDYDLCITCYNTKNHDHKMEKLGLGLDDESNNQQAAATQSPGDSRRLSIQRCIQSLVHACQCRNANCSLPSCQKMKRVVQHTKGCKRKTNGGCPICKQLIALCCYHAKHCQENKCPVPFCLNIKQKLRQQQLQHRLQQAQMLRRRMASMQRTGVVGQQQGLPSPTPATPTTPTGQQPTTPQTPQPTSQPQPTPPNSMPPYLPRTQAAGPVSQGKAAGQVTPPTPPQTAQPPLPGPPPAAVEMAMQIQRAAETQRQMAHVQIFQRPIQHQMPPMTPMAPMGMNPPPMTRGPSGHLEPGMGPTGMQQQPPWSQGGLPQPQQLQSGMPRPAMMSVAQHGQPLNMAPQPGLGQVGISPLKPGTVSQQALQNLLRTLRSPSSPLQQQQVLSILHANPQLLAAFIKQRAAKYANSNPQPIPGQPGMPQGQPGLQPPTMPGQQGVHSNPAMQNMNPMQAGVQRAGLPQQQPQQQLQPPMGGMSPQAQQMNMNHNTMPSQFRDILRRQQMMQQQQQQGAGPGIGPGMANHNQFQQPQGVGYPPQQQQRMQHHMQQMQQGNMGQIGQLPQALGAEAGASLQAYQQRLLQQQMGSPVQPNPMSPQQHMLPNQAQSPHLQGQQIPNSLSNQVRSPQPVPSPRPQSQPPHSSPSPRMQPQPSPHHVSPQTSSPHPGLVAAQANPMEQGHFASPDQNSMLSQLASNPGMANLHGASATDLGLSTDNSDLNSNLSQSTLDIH
Procedure: (§1) Specific exemplary bivalent compounds were characterized in LNCaP or 22RV1 cells. LNCaP or 22RV1 cells that express CBP/P300 proteins were treated with GNE-781 or the bivalent compounds disclosed herein (P-001 to P-265) for indicated hours. Cells were collected, lysed and subject to immunoblotting using an antibody specific to P300 or CBP proteins. Tubulin or vinculin was included as the loading control. DMSO was used as the negative control.
(§2) LNCaP (clone FGC), 22RV1 and other cells were cultured at 37° C. with 5% CO 2 in RPMI 1640 Medium supplemented with 10% fetal bovine serum. Cells were authenticated using the short tandem repeat (STR) assays. Mycoplasma test results were negative.
(§3) Cultured cells or tissue chunks were washed with cold PBS once and lysed in cold RIPA buffer supplemented with protease inhibitors and phosphatase inhibitors (Beyotime Biotechnology). The solutions were then incubated at 4° C. for 30 minutes with gentle agitation to fully lyse cells. Cell lysates were centrifuged at 13,000 rpm for 10 minutes at 4° C. and pellets were discarded. Total protein concentrations in the lysates were determined by BCA assays (Beyotime Biotechnology). Cell lysates were mixed with Laemmli loading buffer to 1 X and heated at 99° C. for 5 min. Proteins were resolved on SDS-PAGE and visualized by chemiluminescence. Images were taken by a ChemiDoc MP Imaging system (Bio-Rad). Protein bands were quantitated using the accompanied software provided by Bio-Rad.

[2] = biological target: T1, P300; experiment: P300 protein level by immunoblotting in 22RV1 cells; type: cell-based; design: LNCaP or 22RV1 cells that express CBP/P300 proteins were treated with GNE-781 or the bivalent compounds; endogenous in cells; host or cells: LNCaP or 22RV1 (not given); settings: various concentrations, compound vs analogue that lost cereblon binding, FIG. 7B
Procedure: as §1, §2
as §3, with “Proteins were resolved on SDS-PAGE and visualized by chemiluminescence. Images were taken by a ChemiDoc MP Imaging system (Bio-Rad).” left out

[3] = biological target: T2, CBP (Homo sapiens, UniProt Q92793); experiment: CBP immunoblotting in 22RV1 subcutaneous xenograft tumors; type: in vivo, athymic nude mice; design: from tissue; host or cells: 22RV1 subcutaneous xenograft tumours in athymic nude mice; settings: single dose 40 mg/kg, intraperitoneally or orally, six hours after administration; FIG. 9
T2 sequence (Q92793 whole entry): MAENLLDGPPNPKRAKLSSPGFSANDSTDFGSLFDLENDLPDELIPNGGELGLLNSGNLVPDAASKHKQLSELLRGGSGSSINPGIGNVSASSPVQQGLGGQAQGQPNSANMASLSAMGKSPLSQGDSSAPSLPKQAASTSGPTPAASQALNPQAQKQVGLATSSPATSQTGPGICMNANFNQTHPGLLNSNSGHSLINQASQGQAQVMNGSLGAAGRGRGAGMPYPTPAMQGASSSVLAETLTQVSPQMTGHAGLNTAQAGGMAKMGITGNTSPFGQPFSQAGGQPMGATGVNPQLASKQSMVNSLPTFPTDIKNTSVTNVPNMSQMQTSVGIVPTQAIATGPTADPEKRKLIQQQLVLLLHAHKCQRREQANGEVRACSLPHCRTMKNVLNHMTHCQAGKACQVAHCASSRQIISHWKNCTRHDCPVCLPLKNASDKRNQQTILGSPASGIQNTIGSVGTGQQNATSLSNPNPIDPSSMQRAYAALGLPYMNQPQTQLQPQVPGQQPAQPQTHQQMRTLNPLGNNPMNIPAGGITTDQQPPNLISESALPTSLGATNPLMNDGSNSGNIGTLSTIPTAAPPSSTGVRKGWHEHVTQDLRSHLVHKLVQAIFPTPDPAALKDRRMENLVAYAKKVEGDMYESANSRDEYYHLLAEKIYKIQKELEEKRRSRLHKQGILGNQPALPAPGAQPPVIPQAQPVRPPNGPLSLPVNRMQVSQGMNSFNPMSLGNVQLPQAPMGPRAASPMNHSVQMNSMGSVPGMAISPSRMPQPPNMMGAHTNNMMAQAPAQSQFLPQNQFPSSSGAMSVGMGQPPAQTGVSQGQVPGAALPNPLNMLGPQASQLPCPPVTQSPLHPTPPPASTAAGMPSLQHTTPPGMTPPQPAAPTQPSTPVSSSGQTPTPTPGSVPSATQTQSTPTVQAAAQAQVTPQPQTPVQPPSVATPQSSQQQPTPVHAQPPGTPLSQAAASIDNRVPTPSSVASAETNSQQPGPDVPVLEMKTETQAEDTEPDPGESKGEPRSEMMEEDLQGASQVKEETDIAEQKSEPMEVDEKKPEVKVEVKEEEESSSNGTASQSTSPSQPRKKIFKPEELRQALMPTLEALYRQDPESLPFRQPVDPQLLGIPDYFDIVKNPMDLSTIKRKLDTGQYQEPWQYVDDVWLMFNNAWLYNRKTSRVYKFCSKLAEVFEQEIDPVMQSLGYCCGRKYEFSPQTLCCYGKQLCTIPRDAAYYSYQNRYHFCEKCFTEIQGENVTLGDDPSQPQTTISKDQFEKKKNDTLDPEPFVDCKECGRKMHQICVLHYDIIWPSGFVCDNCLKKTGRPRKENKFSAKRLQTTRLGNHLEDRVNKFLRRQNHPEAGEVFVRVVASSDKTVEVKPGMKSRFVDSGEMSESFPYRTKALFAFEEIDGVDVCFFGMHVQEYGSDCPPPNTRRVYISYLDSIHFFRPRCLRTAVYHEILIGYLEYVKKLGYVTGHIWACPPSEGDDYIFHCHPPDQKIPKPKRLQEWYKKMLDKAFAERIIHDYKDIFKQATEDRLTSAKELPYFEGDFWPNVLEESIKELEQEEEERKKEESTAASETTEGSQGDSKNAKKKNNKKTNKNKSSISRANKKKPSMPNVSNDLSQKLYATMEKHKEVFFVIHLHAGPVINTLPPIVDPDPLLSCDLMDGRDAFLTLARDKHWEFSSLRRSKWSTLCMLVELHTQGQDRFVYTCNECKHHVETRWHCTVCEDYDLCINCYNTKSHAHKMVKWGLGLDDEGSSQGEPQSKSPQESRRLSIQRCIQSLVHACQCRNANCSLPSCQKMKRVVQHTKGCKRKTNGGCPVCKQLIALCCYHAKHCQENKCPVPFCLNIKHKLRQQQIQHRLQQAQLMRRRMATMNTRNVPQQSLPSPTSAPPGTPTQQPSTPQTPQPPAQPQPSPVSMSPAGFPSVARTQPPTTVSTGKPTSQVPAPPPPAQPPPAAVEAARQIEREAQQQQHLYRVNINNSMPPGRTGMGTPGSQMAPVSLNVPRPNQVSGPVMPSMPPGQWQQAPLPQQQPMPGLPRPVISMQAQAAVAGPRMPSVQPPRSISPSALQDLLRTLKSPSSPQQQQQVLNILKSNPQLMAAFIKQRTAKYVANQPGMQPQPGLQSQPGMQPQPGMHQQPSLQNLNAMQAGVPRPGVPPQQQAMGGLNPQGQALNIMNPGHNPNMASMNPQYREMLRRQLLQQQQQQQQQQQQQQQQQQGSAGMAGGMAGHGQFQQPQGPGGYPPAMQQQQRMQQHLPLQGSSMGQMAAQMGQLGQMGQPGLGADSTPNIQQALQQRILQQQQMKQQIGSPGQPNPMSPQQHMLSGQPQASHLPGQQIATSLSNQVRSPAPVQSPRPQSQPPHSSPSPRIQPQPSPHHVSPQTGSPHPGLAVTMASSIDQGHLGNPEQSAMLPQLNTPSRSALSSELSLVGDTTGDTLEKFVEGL
Procedure: (§4) In addition to cultured cells, athymic nude mice bearing 22RV1 subcutaneous xenograft tumors at the right flank were intraperitoneally or orally treated with 40 mg/kg bivalent compounds. Six hours after drug administration, animals were sacrificed for immunoblotting of P300 and CBP in homogenized xenograft tumor masses. […] Moreover, ICR mice were orally treated with 40 mg/kg bivalent compounds. Six hours after drug administration, animals were sacrificed for immunoblotting of CBP in homogenized lung tissues.
(§5) Athymic nude mice bearing 22RV1 subcutaneous xenograft tumors at the right flank were intraperitoneally or orally treated with selected bivalent compounds at 40 mg/kg. Six hours after drug administration, animals were sacrificed, and xenograft tumors were collected for immunoblotting of P300 and CBP.
as §3
(§6) All animal experiments were performed under protocols approved by the Institutional Animal Care and Use Committee (IACUC) of Cullgen. Athymic nude mice (male, 5-weeks old) received 5 million 22RV1 cells subcutaneously inoculated at the right flank site. Twenty days following inoculation, tumors were approxmiately 500 mm^3 in size. Tumor-bearing mice were treated intraperitoneally or via oral gavage with vehicle or bivalent compounds at indicated doses. […]

[4] = biological target: T1, P300; experiment: P300 immunoblotting in 22RV1 subcutaneous xenograft tumors; type: in vivo, athymic nude mice; design: from tissue; host or cells: 22RV1 subcutaneous xenograft tumours in athymic nude mice; settings: single dose 40 mg/kg, intraperitoneally or orally, six hours after administration; FIG. 9
Procedure: as §4, §5, §3, §6

[5] = biological target: T2, CBP; experiment: CBP protein level by immunoblotting in LNCaP cells; type: cell-based; design: LNCaP or 22RV1 cells that express CBP/P300 proteins were treated with GNE-781 or the bivalent compounds; endogenous in cells; host or cells: LNCaP (clone FGC); settings: single dose, FIG. 8
Procedure: as §1, §2, §3

CBP protein levels in xenograft tumors [3] | P300 protein levels in xenograft tumors [4] | Compound | degradation of P300 in combination with pomalidomide, MG-132, Bortezomib or MLN4924 [1] | P300 protein levels [1] | P300 protein levels [2] | degradation of CBP in combination with pomalidomide, MG-132, Bortezomib or MLN4924 [5]
significantly reducing | significantly reducing | CNC(=O)N1CCc2c(c(N3CCCc4cc(-c5cnn(C)c5)c(C(F)F)cc43)nn2C2CCN(C(=O)CCCCCNc3cccc4c3C(=O)N(C3CCC(=O)NC3=O)C4=O)CC2)C1 (stereo not shown) [P-034, 3-(7-(difluoromethyl)-6-(1-methyl-1H-pyrazol-4-yl)-3,4-dihydroquinolin-1(2H)-yl)-1-(1-(6-((2-(2,6-dioxopiperidin-3-yl)-1,3-dioxoisoindolin-4-yl)amino)hexanoyl)piperidin-4-yl)-N-methyl-1,4,6,7-tetrahydro-5H-pyrazolo[4,3-c]pyridine-5-carboxamide] | compromised; also recorded: could be neutralized | a chemical modification that disrupted cereblon binding abolished P300 degradation | a chemical modification that disrupted cereblon binding abolished P300 degradation | compromised; also recorded: could be neutralized
significantly reducing | significantly reducing | CC(=O)N1CCc2c(c(N3CCCc4cc(-c5cnn(C)c5)c(C(F)F)cc43)nn2C2CCN(C(=O)CCCCCNc3cccc4c3C(=O)N(C3CCC(=O)NC3=O)C4=O)CC2)C1 (stereo not shown) [P-100, 4-((6-(4-(5-acetyl-3-(7-(difluoromethyl)-6-(1-methyl-1H-pyrazol-4-yl)-3,4-dihydroquinolin-1(2H)-yl)-4,5,6,7-tetrahydro-1H-pyrazolo[4,3-c]pyridin-1-yl)piperidin-1-yl)-6-oxohexyl)amino)-2-(2,6-dioxopiperidin-3-yl)isoindoline-1,3-dione] | compromised; also recorded: could be neutralized | reduced P300 protein levels in a concentration-dependent manner | reduced P300 protein levels in a concentration-dependent manner | compromised; also recorded: could be neutralized
significantly reducing | significantly reducing | CNC(=O)N1CCc2c(c(N3CCCc4cc(-c5cnn(C)c5)c(C(F)F)cc43)nn2C2CCN(C(=O)CCCCCCCNc3ccc4c(c3)C(=O)N(C3CCC(=O)NC3=O)C4=O)CC2)C1 (stereo not shown) [P-007, 3-(7-(difluoromethyl)-6-(1-methyl-1H-pyrazol-4-yl)-3,4-dihydroquinolin-1(2H)-yl)-1-(1-(8-((2-(2,6-dioxopiperidin-3-yl)-1,3-dioxoisoindolin-5-yl)amino)octanoyl)piperidin-4-yl)-N-methyl-1,4,6,7-tetrahydro-5H-pyrazolo[4,3-c]pyridine-5-carboxamide] | compromised; also recorded: could be neutralized |  |  | compromised; also recorded: could be neutralized

Source: patent US20240100170A1, “CYCLIC-AMP RESPONSE ELEMENT BINDING PROTEIN (CBP) AND/OR ADENOVIRAL E1A BINDING PROTEIN OF 300 KDA (P300) DEGRADATION COMPOUNDS AND METHODS OF USE” (CULLGEN (SHANGHAI), INC., priority 2020, published 2024)
